Columns and labels:
[1] = Toxicity test of single oral gavage administration in Beagle dogs; format: in vivo; conditions: administered twice within 24 hours
Experimental: (§1) According to the general toxicology study in accordance with the NMPA “Good Laboratory Practice for Non-clinical Laboratory Studies” and FDA GLP specification (21CFR Part 58), and in line with the requirements of International Conference on Harmonization of Technical Requirements for Registration of Pharmaceuticals for Human Use (ICH) and the NMPA relevant guidelines, the toxicology study on Compound (I) was carried out to provide safety data support for the use of Compound (I) in clinical patients. The administration mode and the experimental results were as follows: […]

[2] = Toxicity test of oral gavage administration in SD rats, 28 consecutive days; format: in vivo; conditions: for AUC: NOAEL 10 mg/kg/time BID, 28-day test; for Safety window, exposure method: NOAEL 28-day test
Experimental: as §1

[3] = Toxicity test of oral gavage administration in Beagle dogs, 28 consecutive days; format: in vivo; conditions: for AUC: NOAEL 3 mg/kg/time BID, 28-day test
Experimental: as §1

[4] = test system: OXA-induced Balb/c mouse atopic dermatitis model; test: Pharmacodynamic test in the OXA-induced mouse atopic dermatitis model; format: in vivo, female Balb/c mice
Source text: The purpose of this test was to evaluate the pharmacodynamics of Compound (I) in the OXA-induced Balb/c mouse atopic dermatitis model. Repeated OXA stimulation of the dorsal skin of mice could produce a long-term inflammatory reaction. This model was closer to the clinical skin inflammation and was a common model for screening and evaluating compounds with anti-inflammatory activity.
Female Balb/c mice aged 8-9 weeks, number: 70
According to the body weight of animals in each group before administration, they were randomly divided into 7 groups with 10 animals in each group.
OXA induction was performed on the 7th day. The induction mode was to apply 5% OXA (dissolved in the acetone/olive oil (4/1) solvent) to the back of mice near the neck in an amount of 10 μL (1.5 cm×1.5 cm). Mice in the normal control group were applied with 10 μL of the acetone/olive oil (4/1) solvent in the same way. From the 1st da to 22nd day, the immunostimulation was performed, and 100 μL of 0.1% OXA (dissolved in the acetone/olive oil (4/1) solvent) was evenly applied on the back of mice near the neck. The application was performed every two days. Mice in the normal control group were applied with 100 μL of the acetone/olive oil (4/1) solvent in the same way. On the day of the immunostimulation, measuring the skin thickness, clinically scoring and photographing were required, and the OXA application was carried out after the above work was completed.
Compound (I) was administered by gavage twice a day (PO, bid) from the 1st to 22nd day. The administration was performed in the morning and completed before measuring the skin thickness, clinically scoring, photographing, and the OXA immunostimulation. The interval between two administrations was 8 hours.
Body weight data were recorded twice a week.
Skin thickness (1.5 cm×1.5 cm, the modeling area) was measured with a Mitutoyo digital indicator (Mitutoyo digimatic indicator, Type ID-C, USA) from the 1st to 22nd day. The measurement was performed every two days. If the skin thickness measurement and the OXA immunostimulation were performed on the same day, the skin thickness measurement would be preferred.
The skin in the modeling area was clinically scored according to the skin scoring criteria in Table 12 from the 1st to 22nd day and evaluated every two days. If the skin clinical scoring and the OXA immunostimulation were performed on the same day, the skin clinical scoring would be preferred.
At the end of the study, the tissue in the modeling area was stained with hematoxylin eosin for the skin pathological scoring and the epidermal thickness measurement.
After the mice were sacrificed, the dorsal skin was removed and fixed in 10% neutral formalin for 24 hours. It was dehydrated, then embedded in paraffin and made into 4-micron sections. The skin sections were stained with hematoxylin eosin, and the inflammatory cell infiltration and tissue changes in the stratum corneum, the epidermis layer and the dermis layer were observed under the microscope, and the pathological scores were made. The scoring criteria were: inflammatory cell aggregation and edema, which were divided into slight 1 point, moderate 2 points, and severe 3 points; telangiectasia, which was divided into slight 1 point, moderate 2 points, and severe 3 points.
The specific scoring criteria of inflammatory cell aggregation were as follows: (1) slight-1 point: inflammatory cells occupied a small amount of <10% of the dermal area of the skin; (2) moderate-2 points: inflammatory cells occupied 10%-50% of the dermal area of the skin; (3) severe-3 points: the inflammatory cells occupied greater than 50% of the dermal area of the skin. […]

in vivo = test: in vivo; set-up: species or system SD rats; conditions: SD, rat, po
Experimental: as §1

[5] = 3 mpk PO bid, after 22 days of treatment

NC(=O)c1cnc(Nc2ccc3c(c2)OC[C@H]2CN(S(=O)(=O)C4CC4)CCN32)nc1NC1CC1 [Compound (I), (R)-4-(cyclopropylamino)-2-((3-(cyclopropylsulfonyl)-1,2,3,4,4a,5-hexahydrobenzo[b]pyrazolo[1,2-d][1,4]oxazin-8-yl)amino)pyrimidine-5-arboxamide]
MTD [1]: 500 mg/kg/time | MTD at 24 h ([1]; dog, in vivo): 1000 mg/kg/day | Safety window, according to the exposure ([2]; SD rats, both sexes, NOAEL 28-day test vs rat effective dose exposure): 8-13 fold | Safety window, dose method ([2]; SD rats, NOAEL 28-day test vs rat effective dose): 3 fold | Safety window of human equivalent dose of NOAEL relative to the human initial dose ([2]; SD, rat, in vivo, 28 days): 16 fold | NOAEL at 28 days ([2]; SD, rat, in vivo, po): 20 mg/kg/day | AUC ([2]; female, SD, rat, in vivo, po, rats ♀): 58.1 µg·h/mL | AUC ([2]; male, SD, rat, in vivo, po, rats ♂): 33.9 µg·h/mL | Human equivalent dose (based on 60 kg body weight) ([2]; of NOAEL for 28-day test of rats): 242 mg | NOAEL of repeated administration for 28 days ([2]; rat, in vivo, po): 10 mg/kg/time | Safety window, exposure method ([2]; rats ♀): ♀13 fold | Safety window, exposure method ([2]; rats ♂): ♂8 fold | Safety window, dose method ([3]; Beagle dogs, NOAEL 28-day test vs rat effective dose): 3 fold | Safety window, exposure method ([3]; Beagle dogs, NOAEL 28-day test vs rat effective dose exposure): 1 fold | Safety window of human equivalent dose of NOAEL relative to the human initial dose ([3]; beagle, dog, in vivo, 28 days): 14 fold | NOAEL at 28 days ([3]; beagle, dog, in vivo, po): 6 mg/kg/day | NOAEL of repeated administration for 28 days ([3]; dog, in vivo, po): 3 mg/kg/time | AUC ([3]; female, beagle, dog, in vivo, po, dogs ♀): 3.93 µg·h/mL | AUC ([3]; male, beagle, dog, in vivo, po, dogs ♂): 3.3 µg·h/mL | Human equivalent dose (based on 60 kg body weight) ([3]; of NOAEL for 28-day test of dogs): 210 mg | Influence on the body weight of mice ([4]; 3, 10, 30 and 60 mpk PO bid, end of the study): no significant influence on the body weight of mice | Body weight ([4]; 3 mpk PO bid, 1st Day): 18.11 ± 0.13 g | Skin clinical score ([4]; 3 mpk PO bid, 1st Day): 0.4 ± 0.16 | Skin thickness (modeling area) ([4]; 3 mpk PO bid, 1st day): 0.511 ± 0.016 mm | Body weight ([4]; 3 mpk PO bid, 7th Day): 18.83 ± 0.20 g | Skin thickness (modeling area) ([4]; 3 mpk PO bid, 7th day): 0.944 ± 0.026 mm | Skin clinical score ([4]; 3 mpk PO bid, 9th day): 3.1 ± 0.10 | Skin thickness (modeling area) ([4]; 3 mpk PO bid, 17th day): 1.361 ± 0.043 mm | Skin clinical score ([4]; 3 mpk PO bid, 19th day): 2.9 ± 0.10 | Skin clinical score ([4]; 3 mpk PO bid, 22nd day): 3.0 ± 0.00 | Skin thickness (modeling area) ([4]; 3 mpk PO bid, 22nd day): 1.368 ± 0.028 mm | Epidermal thickness [4, 5]: 75.79 ± 3.36 μm | Pathological score [4, 5]: 6.4 ± 0.34 | Body weight ([4]; 3 mpk PO bid, −7th Day): 18.11 ± 0.13 g | Body weight ([4]; 10 mpk PO bid, 1st Day): 18.11 ± 0.13 g | Skin clinical score ([4]; 10 mpk PO bid, 1st Day): 0.4 ± 0.16 | Skin thickness (modeling area) ([4]; 10 mpk PO bid, 1st day): 0.535 ± 0.027 mm | Body weight ([4]; 10 mpk PO bid, 7th Day): 18.80 ± 0.22 g | Skin thickness (modeling area) ([4]; 10 mpk PO bid, 7th day): 0.958 ± 0.026 mm | Skin clinical score ([4]; 10 mpk PO bid, 9th day): 3.0 ± 0.00 | Skin thickness (modeling area) ([4]; 10 mpk PO bid, 17th day): 1.257 ± 0.020 mm | Skin clinical score ([4]; 10 mpk PO bid, 19th day): 2.7 ± 0.15 | Skin clinical score ([4]; 10 mpk PO bid, 22nd day): 2.7 ± 0.15 | Skin thickness (modeling area) ([4]; 10 mpk PO bid, 22nd day): 1.338 ± 0.021 mm | Body weight ([4]; 10 mpk PO bid, −7th Day): 18.11 ± 0.13 g | Body weight ([4]; 30 mpk PO bid, 1st Day): 18.10 ± 0.12 g | Skin clinical score ([4]; 30 mpk PO bid, 1st Day): 0.5 ± 0.17 | Skin thickness (modeling area) ([4]; 30 mpk PO bid, 1st day): 0.534 ± 0.029 mm | Body weight ([4]; 30 mpk PO bid, 7th Day): 18.79 ± 0.11 g | Skin thickness (modeling area) ([4]; 30 mpk PO bid, 7th day): 0.976 ± 0.021 mm | Skin clinical score ([4]; 30 mpk PO bid, 9th day): 3.0 ± 0.00 | Body weight ([4]; 30 mpk PO bid, −7th Day): 18.10 ± 0.12 g | Body weight ([4]; 60 mpk PO bid, 1st Day): 18.10 ± 0.12 g | Skin clinical score ([4]; 60 mpk PO bid, 1st Day): 0.6 ± 0.16 | Skin thickness (modeling area) ([4]; 60 mpk PO bid, 1st day): 0.556 ± 0.035 mm | Body weight ([4]; 60 mpk PO bid, 7th Day): 18.92 ± 0.13 g | Skin thickness (modeling area) ([4]; 60 mpk PO bid, 7th day): 0.993 ± 0.033 mm | Skin clinical score ([4]; 60 mpk PO bid, 9th day): 3.0 ± 0.00 | Body weight ([4]; 60 mpk PO bid, −7th Day): 18.10 ± 0.12 g | NOAEL (in vivo): 2000 mg/kg
